# In patent publication US20060276468A1, “Wood preservative formulations comprising Imazalil” (priority 2005, published 2006):
# System: decay organisms
# Assay: soil contact veneer exposure test: dip-treated Scots pine sapwood veneers half buried in damp compost, pulled by hand weekly until failure
# Conditions: for half life, Low level with 0.8% Imazalil sulfate: 0.8% fungicide plus 0.8% imazalil sulfate, IMS; for average time for failure to occur (half life), combination with imazalil sulfate / estimated expected average time for failure, combination with imazalil sulfate / average time for failure to occur (half life): Example 1; for average time for failure to occur (half life), combination with imazalil sulfate: 0.3% dichlorophen, 0.1% triclosan, 0.4% fenarimol or 0.4% PHMB, each plus 0.2% imazalil sulfate; for estimated expected average time for failure, combination with imazalil sulfate: midway between the two single biocides; for average time for failure to occur (half life): biocide alone: 0.6% dichlorophen, 0.2% triclosan, 0.8% fenarimol, 0.8% PHMB, 0.4% imazalil sulfate, 6 veneers; for synergy of the combination with imazalil sulfate: actual versus expected average time to failure; for estimated expected half life for 1% fungicide plus 1% Imazalil sulfate / Half life for 1% fungicide plus 1% Imazalil sulfate / Half life for fungicide at 2% active ingredient (ai): Example 3
# From the text: The present invention also provides a simple exposure test for evaluating the wood preserving abilities of candidate ingredients or compositions. This exposure test is based on the premise that small dimension timber test specimens tend to fail more quickly than larger ones in soil contact situations.
# It is preferable that the thickness of the veneers be greater than 0.1 mm, as veneers of lesser thickness can often be pulled apart by hand without undergoing exposure to decay organisms. Veneers which are thicker than 0.4 may take an excessive amount of time to fail the exposure test. In one embodiment, the thickness of the veneers is about 0.2 mm and the wood is the sapwood of the Scots pine (Pinus sylvestris). Other woods and thicknesses can be used. […] An example of convenient width and length dimensions are 15×50 mm. However, width and length are not critical provided they are kept consistent within a test, although very large or small length or width dimensions may be difficult to handle.
# Accordingly, the test of the present invention comprises testing the integrity of a veneer after exposure to a decay-inducing environment. In one embodiment, this environment is damp compost in which decay organisms are present and water is present at just above the water holding capacity of the compost. If desired, other media can be used, and the test can be conducted at water contents which are below, at, or above the water-holding capacity of the media.
# In general, the integrity of the veneer is inversely related to the length of exposure to the decay promoting environment. The integrity of the veneer can be tested by applying a force to the veneer and noting whether or not the veneer breaks. Thus, if wood preservative agents are applied to the veneers, these veneers would be expected to withstand longer exposure to the environment without breaking compared to control veneers without breaking.
# The force applied to the veneers is preferably a force which pulls the two ends in opposite directions. The force can be applied by the use of an instrument or manually. If there is significant decay the veneer will break, generally near the junction between the portion submerged in the decay accelerating medium and the portion exposed to air. If the force is applied manually, it is preferable that the same individual conduct the test at the various exposure time points.
# The veneers were cut such that both late wood and early wood were present in each veneer. The following biocides were tested: imazalil sulfate, dichlorophen, fenarimol, triclosan, and PHMB. To allow the mixing together of the five selected biocides in any combination the biocides were formulated such that they could be mixed together (all the percentages are mass/mass):
# Test solutions were prepared and sets of veneers were dip treated such that there were 6 replicate veneers for each treatment under investigation. Additionally six veneers were dip treated in deionised water to act as water controls. […] Plastic containers (approximately 350×220 mm by at least 60 mm high) were part filled with John Innes Number 2 potting compost at a little above its water holding capacity. The veneers for this particular test were placed in six rows within a container such that approximately half the veneer was below the compost and half above. The veneers were placed in the compost such than those given a particular treatment were distributed throughout the container and were not grouped together. The containers, compost and veneers were weighed then incubated at about 30° C. and near 100% relative humidity in an incubator. Each week during the test the assembly was reweighed and deionised water added to bring it back to its original mass. After 3 weeks each veneer was examined in turn. It was held between the fore finger and thumb at each end and pulled to see if it could be broken. If it could be pulled apart a failure was recorded.
# [1] = Example 5, solutions in acetone
# [2] = unnumbered table, additive expectation
# [3] = unnumbered table, solutions in IMS
# [4] = Example 8, solutions in IMS (alcohol)
molecule,measurement,setting,value
"CCCCCCCCn1sc(Cl)c(Cl)c1=O [RH 287, 4,5-dichloro-2-n-octyl-3(2H)-isothiazolone]",estimated expected half life for 1% fungicide plus 1% Imazalil,"Example 5, additive expectation",{15.09 weeks}
same,Half life for 1% fungicide plus 1% Imazalil,[1],19.33 weeks
same,Half life for fungicide at 2% ai,[1],22.50 weeks
"O=C(Nc1ccccc1)c1ccccc1O [Salicylanilide, 2-hydroxy-N-phenylbenzamide]","half life, Low level with 0.8% Imazalil sulfate",unnumbered table,6.50 weeks
same,"expected half life, Low level with 0.8% Imazalil sulfate",[2],{6.34 weeks}
same,"half life, High level (1.6%)",[3],5.67 weeks
same,"half life, Low level (0.8%)",[3],4.83 weeks
"CCCCCCCCCCCCN(CCCN)CCCN [Triameen Y 12D-30, N,N-bis(3-aminopropyl)dodeclamine]","estimated expected half life, Low level (0.8%) plus 0.8% Imazalil","Example 8, additive expectation",{5.75 weeks}
same,"half life, High level (1.6%)",[4],5.00 weeks
same,"half life, Low level (0.8%)",[4],4.33 weeks
same,"half life, Low level (0.8%) plus 0.8% Imazalil",[4],6.00 weeks
"Oc1cc(Cl)ccc1Oc1ccc(Cl)cc1Cl [Trichlosan, 5-chloro-2-(2,4-dichlorophenoxy)phenol]","average time for failure to occur (half life), combination with imazalil sulfate",,5.50 weeks
same,"estimated expected average time for failure, combination with imazalil sulfate",additive expectation,(4.75) weeks
same,average time for failure to occur (half life),,~4.33 weeks
same,synergy of the combination with imazalil sulfate,,positive synergy
"CCCCCCCCCCCCCN1CC(C)OC(C)C1 (stereo not shown) [Tridemorph, 4-alkyl-2,6-dimethylmorpholine]",estimated expected half life for 1% fungicide plus 1% Imazalil sulfate,additive expectation,5.42 weeks
same,Half life for 1% fungicide plus 1% Imazalil sulfate,solutions in IMS (alcohol),6.33 weeks
same,Half life for fungicide at 2% active ingredient (ai),solutions in IMS (alcohol),4.83 weeks
"N,N-didecyl-N-methyl-poly(oxethyl)ammonium propionate [Bardap 26]","half life, Low level with 0.8% Imazalil sulfate",,4.83 weeks
same,"average time for failure to occur, quat with Imazalil sulfate","Example 2, 0.18% active quat plus 0.30% imazalil sulfate (Table 3; text b187 says 0.2%)",5.33 weeks
same,"average time for failure to occur, Quat Only","Example 2, 0.36% active quat in deionised water",5.00 weeks
same,"estimated expected average time for failure, quat with Imazalil sulfate","Example 2, additive expectation",5.34 weeks
same,synergy of the combination with imazalil sulfate,,approximates that predicted in the case of no synergy
same,"expected half life, Low level with 0.8% Imazalil sulfate",additive expectation,{5.50 weeks}
same,"half life, High level (1.6%)",solutions in IMS,5.17 weeks
same,"half life, Low level (0.8%)",solutions in IMS,4.67 weeks
Poly(hexamethylenebiguanide)hydrochloride [PHMB],"average time for failure to occur (half life), combination with imazalil sulfate",,5.17 weeks
same,"estimated expected average time for failure, combination with imazalil sulfate",additive expectation,(5.00) weeks
same,average time for failure to occur (half life),,4.83 weeks
same,synergy of the combination with imazalil sulfate,,positive synergy
alkyl dimethyl benzyl ammonium chloride [BAC],estimated expected half life for 1% fungicide plus 1% Imazalil sulfate,additive expectation,5.59 weeks
same,Half life for 1% fungicide plus 1% Imazalil sulfate,solutions in IMS (alcohol),6.17 weeks
same,Half life for fungicide at 2% active ingredient (ai),solutions in IMS (alcohol),5.17 weeks
same,"half life, Low level with 0.8% Imazalil sulfate",unnumbered table,6.00 weeks
same,"expected half life, Low level with 0.8% Imazalil sulfate",[2],{592 weeks}
same,"half life, High level (1.6%)",[3],4.83 weeks
same,"half life, Low level (0.8%)",[3],4.67 weeks
copper naphthenate [Copper (as copper naphthenate)],estimated expected half life for 1% fungicide plus 1% Imazalil,"Example 6, additive expectation",{10.50 weeks}
same,Half life for fungicide at 2% ai,"Example 6, solutions in xylene",14.83 weeks
same,Half life for 1% fungicide plus 1% Imazalil,"Example 6, solutions in xylene, 1% copper",11.67 weeks
